According to patent US20260327216A1, “SUBSTITUTED OXAZOLONE COMPOUND FOR DECREASING LEVELS OF IKZF I-4 PROTEINS” (BRISTOL-MYERS SQUIBB COMPANY, priority 2023, published 2026):

What was measured:
Assay type in all cases: cell-based
IKZF2 Helios = IKZF2 Helios (Homo sapiens, UniProt Q96SW2+Q9UKS7); test: Jurkat Cellular Degradation Assay, IKZF2; parameters: endogenous in cells; conditions: 72 h, Jurkat cells; for Dmax: Jurkat, human, 100% = complete degradation, 0% = no detectable degradation, read-out: IKZF2 Helios max % deg. observed
Sequence of IKZF2 Helios (Q9UKS7 whole entry): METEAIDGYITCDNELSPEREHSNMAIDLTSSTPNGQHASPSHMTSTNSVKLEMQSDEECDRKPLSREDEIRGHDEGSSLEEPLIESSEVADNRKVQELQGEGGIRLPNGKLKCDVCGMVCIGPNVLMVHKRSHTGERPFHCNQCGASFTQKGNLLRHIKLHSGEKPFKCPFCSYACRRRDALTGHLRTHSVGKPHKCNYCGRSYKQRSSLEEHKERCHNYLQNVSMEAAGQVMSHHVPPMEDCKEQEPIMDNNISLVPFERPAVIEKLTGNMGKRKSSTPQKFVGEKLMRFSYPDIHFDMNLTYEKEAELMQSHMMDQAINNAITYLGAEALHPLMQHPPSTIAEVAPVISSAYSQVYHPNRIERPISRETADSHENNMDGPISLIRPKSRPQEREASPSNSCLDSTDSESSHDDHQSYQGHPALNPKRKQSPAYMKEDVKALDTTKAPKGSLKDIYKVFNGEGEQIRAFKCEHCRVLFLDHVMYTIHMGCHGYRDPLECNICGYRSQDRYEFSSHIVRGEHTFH
Sequence of IKZF2 Helios (Q96SW2 whole entry): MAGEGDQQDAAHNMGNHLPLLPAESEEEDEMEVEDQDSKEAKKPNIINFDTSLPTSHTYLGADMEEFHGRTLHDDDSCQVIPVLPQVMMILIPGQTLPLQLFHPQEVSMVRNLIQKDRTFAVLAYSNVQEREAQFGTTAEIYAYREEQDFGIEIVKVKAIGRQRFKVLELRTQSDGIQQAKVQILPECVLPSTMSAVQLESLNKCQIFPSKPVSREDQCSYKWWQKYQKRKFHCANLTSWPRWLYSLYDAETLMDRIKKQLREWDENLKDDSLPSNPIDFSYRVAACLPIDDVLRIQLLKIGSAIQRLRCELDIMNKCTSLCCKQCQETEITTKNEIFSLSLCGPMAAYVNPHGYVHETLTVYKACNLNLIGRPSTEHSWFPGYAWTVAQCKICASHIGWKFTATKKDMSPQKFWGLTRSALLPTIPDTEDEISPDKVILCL
Sequence of IKZF2 Helios (Q16531 whole entry partner): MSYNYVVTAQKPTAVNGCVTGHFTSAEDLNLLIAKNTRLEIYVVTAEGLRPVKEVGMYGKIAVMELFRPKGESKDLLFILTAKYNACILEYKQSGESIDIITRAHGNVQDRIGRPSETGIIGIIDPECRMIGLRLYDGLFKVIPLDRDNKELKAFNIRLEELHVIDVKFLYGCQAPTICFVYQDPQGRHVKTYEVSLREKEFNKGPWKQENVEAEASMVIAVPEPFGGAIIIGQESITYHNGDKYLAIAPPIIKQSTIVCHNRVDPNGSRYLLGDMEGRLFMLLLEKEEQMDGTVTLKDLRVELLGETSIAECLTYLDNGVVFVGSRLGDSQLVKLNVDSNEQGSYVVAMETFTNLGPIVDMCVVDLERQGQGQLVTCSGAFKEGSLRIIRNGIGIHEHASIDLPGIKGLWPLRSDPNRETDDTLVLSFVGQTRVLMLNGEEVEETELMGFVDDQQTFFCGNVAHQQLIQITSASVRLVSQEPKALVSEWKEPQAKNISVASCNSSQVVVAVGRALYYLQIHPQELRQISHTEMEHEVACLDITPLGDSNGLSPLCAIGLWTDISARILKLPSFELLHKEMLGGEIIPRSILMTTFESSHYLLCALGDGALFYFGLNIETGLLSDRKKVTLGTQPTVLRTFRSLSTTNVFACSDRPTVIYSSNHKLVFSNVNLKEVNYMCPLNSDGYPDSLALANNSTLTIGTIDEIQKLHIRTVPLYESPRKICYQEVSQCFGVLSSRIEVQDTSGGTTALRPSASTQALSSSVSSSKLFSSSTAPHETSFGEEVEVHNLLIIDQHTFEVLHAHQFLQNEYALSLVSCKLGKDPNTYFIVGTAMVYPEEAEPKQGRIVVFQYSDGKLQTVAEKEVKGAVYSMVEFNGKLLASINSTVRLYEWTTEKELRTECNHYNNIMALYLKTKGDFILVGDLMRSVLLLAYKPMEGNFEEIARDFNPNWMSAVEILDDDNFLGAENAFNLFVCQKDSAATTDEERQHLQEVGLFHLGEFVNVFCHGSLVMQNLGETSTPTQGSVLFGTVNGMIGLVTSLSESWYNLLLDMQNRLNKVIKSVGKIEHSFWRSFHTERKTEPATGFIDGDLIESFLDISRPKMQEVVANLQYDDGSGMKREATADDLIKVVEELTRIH
Protocol: Jurkat cells were plated at 80,000 cells/well in 40 μL RPMI+10% FBS in a 384-well cell culture plate prior to using acoustic dispensing technology for adding a compound of interest. Cell cultures were incubated for 72 h at 37° C. and 5% CO2. In order to facilitate analysis, cell cultures were spun down at 200 rpm for 5 min and the supernatant was discarded. After shaking the plate to dislodge the cell pellet, cells were resuspended in 50 μL of Fixation Buffer (eBioscience FoxP3 buffer set 00-5523-00) for 60 min at room temperature. After centrifuging and discarding the supernatant, cells were permeabilized with 50 μL of Permeabilization buffer (eBioscience FoxP3 buffer set 00-5523-00) for 10 min at room temperature. Following permeabilization, cells were spun down and the supernatant was replaced with 20 μL fluorescently labelled antibodies against Helios, Ikaros and Aiolos or corresponding Isotype controls in 1× Permeabilization buffer (Ikaros-Alexa488 [Biolegend, Cat #368408, 1:50], Helios-PE [CST, Cat #29360, 1:50], Aiolos-Alexa647 [Biolegend, Cat #371106 Biolegend, 1:25]) and staining reactions were incubated for 1 h at room temperature while protected from light. Subsequently, 30 μL of 1× Permeabilization buffer was added prior to centrifuging the cells and discarding the supernatant. Stained cells were resuspended in 25 μL of flow cytometry staining buffer [PBS+0.2% bovine serum albumin (BSA)] and analyzed using an Intellicyt Ique Plus flow cytometer.
(§1) Table A-1 lists the maximum observed degradation of the IKZF1 protein, IKZF2 protein, and IKZF3 protein as measured in the Jurkat Cellular Degradation assay. The results in Table A-1 were rounded to two digits. In the Jurkat Cellular Degradation assay, a value of 100% indicated no detectable protein remaining or complete degradation of the protein; and a value of 0% indicated no detectable degradation of the protein by the test compound.

IKZF1 Ikaros = IKZF1 Ikaros (Homo sapiens, UniProt Q13422+Q96SW2); test: Human CD8^+ T Cell Reprogramming Assay, IKZF1; parameters: Cryopreserved healthy donor human peripheral blood mononuclear cells (PBMC); endogenous in cells; host or cells: human PBMC from healthy donors (CD8+ T cells by flow cytometry); conditions: human PBMC, CD8+ T cells; for Dmax: human, 24 h, read-out: IKZF1 Ikaros Maximum Observed Degradation
Sequence of IKZF1 Ikaros (Q13422 whole entry): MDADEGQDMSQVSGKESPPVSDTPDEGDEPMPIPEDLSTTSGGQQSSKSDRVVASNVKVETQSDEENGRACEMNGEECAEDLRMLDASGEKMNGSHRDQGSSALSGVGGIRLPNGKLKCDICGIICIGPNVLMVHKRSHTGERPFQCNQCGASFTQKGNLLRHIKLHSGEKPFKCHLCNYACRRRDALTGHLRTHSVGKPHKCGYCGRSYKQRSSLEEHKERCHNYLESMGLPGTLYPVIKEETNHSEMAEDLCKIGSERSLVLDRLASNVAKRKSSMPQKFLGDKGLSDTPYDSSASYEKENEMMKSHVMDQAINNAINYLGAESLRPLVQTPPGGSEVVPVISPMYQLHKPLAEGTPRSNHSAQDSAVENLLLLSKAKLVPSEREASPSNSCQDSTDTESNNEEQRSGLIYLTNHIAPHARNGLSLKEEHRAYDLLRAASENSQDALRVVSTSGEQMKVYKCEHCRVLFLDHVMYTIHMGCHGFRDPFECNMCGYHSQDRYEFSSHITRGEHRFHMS
Sequence of IKZF1 Ikaros (Q96SW2 whole entry): as the sequence (Q96SW2 whole entry) above
Sequence of IKZF1 Ikaros (Q16531 whole entry partner): as the sequence (Q16531 whole entry partner) above
Protocol: (§2) Cryopreserved healthy donor human peripheral blood mononuclear cells (PBMC) from healthy donors were thawed and seeded at 500,000 cells/well of 96-well round bottom plates in RPMI 1640 media (Gibco) supplemented with 10% FBS, Pen/Strep (Gibco), MEM-NEAA (Gibco), and sodium pyruvate (Gibco). Cells were treated with titrated doses of compound for 24 hours at 37° C., 5% CO2 before analyzing by flow cytometry.
(§3) For flow cytometry staining, cells were washed twice with flow cytometry staining buffer (Thermo Fisher) and incubated in Human Tru-stain Fc block (Biolegend) for 10 minutes before adding eFluor780 viability dye (Thermo Fisher) and surface marker antibody cocktail containing LD-eFluor780, CD3-BUV-395, CD4-BUV805, CD8-FITC, and CD25-BV605 for 30 minutes at 4° C. Cells were then fixed and permeabilized by incubation with permeabilization buffer (eBioscience FoxP3 buffer set 00-5523-00) for 30 minutes at 4° C. as per the kit manufacturer's instructions. Cells were washed twice with the Perm/Wash buffer supplied in the kit as per the manufacturer's instructions and incubated overnight at 4° C. with an intracellular antibody cocktail comprised of antibodies specific for the transcription factors (i.e., Foxp3-BV421, HELIOS-PE-Cy7, EOS-PE, IKAROS-PECF594, AIOLOS-AF647). Cells were washed twice with Perm/Wash buffer and resuspended in flow cytometry staining buffer (Thermo Fisher) prior to acquisition. Sample acquisition and analysis was performed using a BD LSRFortessa (BD Biosciences) flow cytometer. Single-stain controls for each fluorochrome were prepared using UltraComp eBead Compensation Beads (Thermo Fisher). Data were analyzed using FlowJo version 10 and GraphPad Prism Software.
as §1, with “D-1” for “A-1”, “protein” for “protein, IKZF2 protein,”, “Human CD8^+ T Cell Reprogramming” for “Jurkat Cellular Degradation”

IKZF3 Aiolos = IKZF3 Aiolos (Homo sapiens, UniProt Q96SW2+Q9UKT9); test: Human CD8^+ T Cell Reprogramming Assay, IKZF3; parameters: Cryopreserved healthy donor human peripheral blood mononuclear cells (PBMC); endogenous in cells; host or cells: human PBMC from healthy donors (CD8+ T cells by flow cytometry); conditions: human PBMC, CD8+ T cells, 24 hours; for IKZF3 Aiolos Maximum Observed Degradation / Dmax: 100% = complete degradation; for Dmax: read-out: IKZF3 Aiolos Maximum Observed Degradation
Sequence of IKZF3 Aiolos (Q9UKT9 whole entry): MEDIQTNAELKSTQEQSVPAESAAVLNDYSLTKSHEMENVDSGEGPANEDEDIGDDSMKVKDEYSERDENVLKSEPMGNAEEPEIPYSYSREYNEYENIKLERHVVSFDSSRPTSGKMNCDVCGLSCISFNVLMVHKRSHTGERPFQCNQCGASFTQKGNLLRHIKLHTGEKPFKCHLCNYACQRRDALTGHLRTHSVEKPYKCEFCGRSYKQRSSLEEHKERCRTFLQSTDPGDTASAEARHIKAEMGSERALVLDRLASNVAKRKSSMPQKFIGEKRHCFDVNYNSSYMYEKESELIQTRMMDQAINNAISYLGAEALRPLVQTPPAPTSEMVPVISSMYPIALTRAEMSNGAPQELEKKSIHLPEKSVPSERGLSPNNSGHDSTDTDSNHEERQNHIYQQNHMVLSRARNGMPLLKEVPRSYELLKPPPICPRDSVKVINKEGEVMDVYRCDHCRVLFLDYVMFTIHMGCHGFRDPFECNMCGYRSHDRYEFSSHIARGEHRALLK
Sequence of IKZF3 Aiolos (Q96SW2 whole entry): as the sequence (Q96SW2 whole entry) above
Sequence of IKZF3 Aiolos (Q16531 whole entry partner): as the sequence (Q16531 whole entry partner) above
Protocol: as §2, §3
as §1, with “D-1” for “A-1”, “protein” for “protein, IKZF2 protein,”, “Human CD8^+ T Cell Reprogramming” for “Jurkat Cellular Degradation”

[1] = concentration reducing protein level by 50% vs DMSO

Dmax (IKZF2 Helios) | Dmax (IKZF1 Ikaros; 100% = complete degradation) | IKZF3 Aiolos Maximum Observed Degradation (IKZF3 Aiolos) | Dmax (IKZF3 Aiolos) | DC50 (IKZF2 Helios; [1]) | IKZF1 Ikaros Maximum Observed Degradation (IKZF1 Ikaros; 24 hours, 100% = complete degradation, 1440 min) | DC50 (IKZF1 Ikaros; 24 hours, concentration reducing protein level by 50% vs DMSO) | IKZF3 Aiolos Maximum Observed Degradation (IKZF3 Aiolos; 1440 min) | DC50 (IKZF3 Aiolos; [1]) | SMILES
< 30% | 74% | 80% | 80% | – | – | – | – | – | O=C1CCC(n2cc(-c3ccccc3)oc2=O)C(=O)N1 (centres unmarked) [Comparative Compound A, 3-(2-oxo-5-phenyloxazol-3(2H)-yl)piperidine-2,6-dione]
– | 17% | – | 0% | – | – | – | – | – | O=C1CCC(n2cc(-c3ccc(Br)cc3F)oc2=O)C(=O)N1 (centres unmarked) [Comparative Compound B, 3-(5-(4-bromo-2-fluorophenyl)-2-oxooxazol-3(2H)-yl)piperidine-2,6-dione]
> 90% | 68 to 69% | – | 69 to 74% | 17.9 nM | 69% | 64 to 94 nM | 69-74% | 22 to 25 nM | Cc1cc(-c2ccc(-c3cn(C4CCC(=O)NC4=O)c(=O)o3)c(F)c2)nc(N)c1OC(F)F (centres unmarked) [Example 1, 3-(5-(4-(6-Amino-5-(difluoromethoxy)-4-methylpyridin-2-yl)-2-fluorophenyl)-2-oxooxazol-3(2H)-yl)piperidine-2,6-dione]
